In patent publication US7312196B2, “Formulations for amylin agonist peptides” (Amylin Pharmaceuticals, Inc., priority 1998, dated 2007):

Tests used:
Format in all cases: physicochemical
[1] = adsorption onto glass container in liquid form
Description: However, with regard to amylin agonists or amylins which do have such a tendency when in liquid form, a surfactant should be used in their formulation. These formulations may then be lyophilized. Surfactants frequently cause denaturation of protein, both of hydrophobic disruption and by salt bridge separation. Relatively low concentrations of surfactant may exert a potent denaturing activity, because of the strong interactions between surfactant moieties and the reactive sites on proteins. However, judicious use of this interaction can stabilize proteins against interfacial or surface denaturation. Surfactants which could further stabilize the peptide may optionally be present in the range of about 0.001 to 0.3% (w/v) of the total formulation and include polysorbate 80 (i.e., polyoxyethylene(20) sorbitan monooleate), CHAPS® (i.e., 3-[(3-cholamidopropyl) dimethylammonio] 1-propanesulfonate), Brij® (e.g., Brij 35, which is (polyoxyethylene (23) lauryl ether), poloxamer, or another non-ionic surfactant.

[2] = pH-rate profile: stability of the peptide at pH 4.0-5.5, 45° C.; conditions: 60 mM acetate buffer, 4.1% mannitol, 0.3% m-cresol
Description: This example describes two preferred liquid formulations for pramlintide. Major degradation pathways for the peptide are […] and peptide bond hydrolysis. Therefore, the stability of the peptide was investigated in the pH region of 4.0-5.5 at 45° C. […] The following formulation was developed: […]

[3] = short term mixing compatibility with insulin in the same syringe; conditions: depending on type of insulin and volume ratio
Description: The formulations reported in Tables A and B are also compatible when mixed in a syringe with commercially available insulin products. […] As outlined by Brange et al, “Insulin Structure and Stability,” in Stability and Characterization of Protein and Peptide Drugs: Case Histories, 1993, Wang et al. (Ed), Plenum Press, NY, insulin has an isoelectric precipitation zone pH range of 4.5-6.5, within 1 pH unit from isoelectric point. Therefore, while not seeking to be bound by theory, if the pH of the insulin product drops from 7.2±0.2 to pH in the isoelectric precipitation range it may cause insulin to precipitate. Thus, clarity of the solution mixture was used as a criteria for preliminary compatibility studies. The insulin volumes used in this study (Table C) cover the maximum and minimum ranges typical for Type I diabetic patients. The formulation with higher buffer capacity (Table C) forms a clear solution faster than the lower buffer capacity formulation. However, at 0.01% of the peptide label strength both formulations form a clear solution with insulin within approximately one minute. In a syringe, one minute can be considered to be instantaneous mixing. The higher label strength of the peptide (0.015% or higher) results in lower dose volume and may require longer than a minute to form a clear solution. […]

CC[C@H](C)[C@H](NC(=O)[C@@H]1CCCN1C(=O)CNC(=O)[C@H](Cc1ccccc1)NC(=O)[C@H](CC(N)=O)NC(=O)[C@H](CC(N)=O)NC(=O)[C@H](CO)NC(=O)[C@H](CO)NC(=O)[C@H](Cc1c[nH]cn1)NC(=O)[C@@H](NC(=O)[C@H](CC(C)C)NC(=O)[C@H](Cc1ccccc1)NC(=O)[C@H](CC(N)=O)NC(=O)[C@H](C)NC(=O)[C@H](CC(C)C)NC(=O)[C@H](CCCNC(=N)N)NC(=O)[C@H](CCC(N)=O)NC(=O)[C@@H](NC(=O)[C@H](C)NC(=O)[C@@H]1CSSC[C@H](NC(=O)[C@@H](N)CCCCN)C(=O)N[C@@H](CC(N)=O)C(=O)N[C@@H]([C@@H](C)O)C(=O)N[C@@H](C)C(=O)N[C@@H]([C@@H](C)O)C(=O)N1)[C@@H](C)O)C(C)C)C(=O)N[C@@H](CC(C)C)C(=O)N1CCC[C@H]1C(=O)N1CCC[C@H]1C(=O)N[C@H](C(=O)N[C@@H](CC(N)=O)C(=O)N[C@H](C(=O)NCC(=O)N[C@@H](CO)C(=O)N[C@@H](CC(N)=O)C(=O)N[C@H](C(=O)N[C@@H](Cc1ccc(O)cc1)C(N)=O)[C@@H](C)O)C(C)C)[C@@H](C)O [pramlintide, ^25,28,29Pro-h-amylin]
tendency to adsorb onto glass [1]: does not have a tendency to adsorb onto the glass | stability of the peptide over the pH range studied [2]: most stable at pH 4.0 | time insulin and peptide formulation can remain in the same syringe retaining activity and stability [3]: at least 24 hours
